Test results as given in US20250382273A1 (INSTITUT NATIONAL DE LA SANTE ET DE LA RECHERCHE MEDICALE, priority 2022, published 2025).

System: M. tuberculosis H37Rv_DdnL49P_gfp
Type: cell-based, Mycobacterium tuberculosis
Conditions: in combination with pretomanid, unit inferred; read-out: average EC50 H37Rv_DdnL49P_gfp

Compound	EC50
CCOc1ccc2nc(NC(=O)[C@@H]3C4C=CC(C4)[C@@H]3C(=O)O)sc2c1 (stereo partly drawn) [Example 7, 3-[(6-ethoxy-1,3-benzothiazol-2-yl)carbamoyl]bicyclo[2.2.1]hept-5-ene-2-carboxylic acid]	1000 nM
O=C(Nc1nc2ccc(Oc3ccc(F)cc3)cc2s1)[C@@H]1C2C=CC(C2)[C@@H]1C(=O)O (stereo partly drawn) [Example 21, 3-[[6-(4-fluorophenoxy)-1,3-benzothiazol-2-yl]carbamoyl]bicyclo[2.2.1]hept-5-ene-2-carboxylic acid]	400 nM
O=C(Nc1nc2ccc(Oc3cc(C(F)(F)F)ccn3)cc2s1)[C@@H]1C2C=CC(C2)[C@@H]1C(=O)O (stereo partly drawn) [Example 27, 3-[[6-[[4-(trifluoromethyl)-2-pyridyl]oxy]-1,3-benzothiazol-2-yl]carbamoyl]bicyclo[2.2.1]hept-5-ene-2-carboxylic acid]	230 nM
O=C(Nc1nc2ccc(Oc3ccnc(C(F)(F)F)c3)cc2s1)[C@@H]1C2C=CC(C2)[C@@H]1C(=O)O (stereo partly drawn) [Example 32, 3-[[6-[[2-(trifluoromethyl)-4-pyridyl]oxy]-1,3-benzothiazol-2-yl]carbamoyl]bicyclo[2.2.1]hept-5-ene-2-carboxylic acid]	320 nM
O=C1[C@@H]2[C@H](C(=O)N1c1nc3ccc(Oc4ccc(C(F)(F)F)cn4)cc3s1)[C@@H]1C=C[C@H]2C1 [Example 36, (1R,2S,6R,7S)-4-[6-[[5-(trifluoromethyl)-2-pyridyl]oxy]-1,3-benzothiazol-2-yl]-4-azatricyclo[5.2.1.02,6]dec-8-ene-3,5-dione]	490 nM

Same assay, conditions: read-out: EC50 H37Rv_DdnL49P_gfp

Compound	EC50
Cc1ccc2nc(NC(=O)[C@@H]3C4C=CC(C4)[C@@H]3C(=O)O)sc2c1 (mixture of isomers) [Example 1, 3-[(6-methyl-1,3-benzothiazol-2-yl)carbamoyl]bicyclo[2.2.1]hept-5-ene-2-carboxylic acid]	5000 to 10000 nM
Cc1ccc2nc(NC(=O)[C@@H]3C4CCC(C4)[C@@H]3C(=O)O)sc2c1 (stereo in doubt) [Example 3, 3-[(6-methyl-1,3-benzothiazol-2-yl)carbamoyl]norbornane-2-carboxylic acid]	1000 to 5000 nM
Cc1ccc2nc(N3C(=O)[C@@H]4[C@H](C3=O)[C@@H]3C=C[C@H]4C3)sc2c1 [Example 2, (1R,2S,6R,7S)-4-(6-methyl-1,3-benzothiazol-2-yl)-4-azatricyclo[5.2.1.02,6]dec-8-ene-3,5-dione]	5000 to 10000 nM
CCOc1ccc2nc(NC(=O)[C@@H]3C4C=CC(C4)[C@@H]3C(=O)O)sc2c1 (stereo partly drawn) [Example 7, 3-[(6-ethoxy-1,3-benzothiazol-2-yl)carbamoyl]bicyclo[2.2.1]hept-5-ene-2-carboxylic acid]	< 1000 nM
CCOc1ccc2nc(N3C(=O)[C@@H]4[C@H](C3=O)[C@@H]3C=C[C@H]4C3)sc2c1 [Example 8, (1R,2S,6R,7S)-4-(6-ethoxy-1,3-benzothiazol-2-yl)-4-azatricyclo[5.2.1.02,6]dec-8-ene-3,5-dione]	1000 to 5000 nM
COc1cc2nc(NC(=O)[C@@H]3C4C=CC(C4)[C@@H]3C(=O)O)sc2cc1OC (stereo partly drawn) [Example 9, 3-[(5,6-dimethoxy-1,3-benzothiazol-2-yl)carbamoyl]bicyclo[2.2.1]hept-5-ene-2-carboxylic acid]	5000 to 10000 nM
O=C(Nc1nc2cc3c(cc2s1)OCCO3)[C@@H]1C2C=CC(C2)[C@@H]1C(=O)O (stereo partly drawn) [Example 10, 3-(6,7-dihydro-[1,4]dioxino[2,3-f][1,3]benzothiazol-2-ylcarbamoyl) bicyclo[2.2.1]hept-5-ene-2-carboxylic acid]	10000 to 20000 nM
CCc1ccc2nc(NC(=O)[C@@H]3C4C=CC(C4)[C@@H]3C(=O)O)sc2c1 (stereo partly drawn) [Example 11, 3-[(6-ethyl-1,3-benzothiazol-2-yl)carbamoyl]bicyclo[2.2.1]hept-5-ene-2-carboxylic acid]	1000 to 5000 nM
CC(C)(C)c1ccc2nc(NC(=O)[C@@H]3C4C=CC(C4)[C@@H]3C(=O)O)sc2c1 (stereo partly drawn) [Example 12, 3-[(6-tert-butyl-1,3-benzothiazol-2-yl)carbamoyl]bicyclo[2.2.1]hept-5-ene-2-carboxylic acid]	< 1000 nM
Cc1cc(C)c2nc(NC(=O)[C@@H]3C4C=CC(C4)[C@@H]3C(=O)O)sc2c1 (stereo partly drawn) [Example 13, 3-[(4,6-dimethyl-1,3-benzothiazol-2-yl)carbamoyl]bicyclo[2.2.1]hept-5-ene-2-carboxylic acid]	1000 to 5000 nM
Cc1ccc2sc(NC(=O)[C@@H]3C4C=CC(C4)[C@@H]3C(=O)O)nc2c1C (stereo partly drawn) [Example 15, 3-[(4,5-dimethyl-1,3-benzothiazol-2-yl)carbamoyl]bicyclo[2.2.1]hept-5-ene-2-carboxylic acid]	1000 to 5000 nM
Cc1cccc2sc(NC(=O)[C@@H]3C4C=CC(C4)[C@@H]3C(=O)O)nc12 (stereo partly drawn) [Example 16, 3-[(4-methyl-1,3-benzothiazol-2-yl)carbamoyl]bicyclo[2.2.1]hept-5-ene-2-carboxylic acid]	1000 to 5000 nM
O=C(Nc1nc2ccc(Oc3ccccc3)cc2s1)[C@@H]1C2C=CC(C2)[C@@H]1C(=O)O (stereo partly drawn) [Example 17, 3-[(6-phenoxy-1,3-benzothiazol-2-yl)carbamoyl]bicyclo[2.2.1]hept-5-ene-2-carboxylic acid]	< 1000 nM
O=C(Nc1nc2ccc(Oc3ccccc3)cc2s1)[C@@H]1C2C=CC(C2)[C@@H]1C(=O)O (stereo partly drawn) [Example 18, [2-hydroxy-1,1-bis(hydroxymethyl)ethyl]ammonium: (1R,2S,3R,4S)-3-[(6-phenoxy-1,3-benzothiazol-2-yl)carbamoyl]bicyclo[2.2.1]hept-5-ene-2-carboxylate]	< 1000 nM
O=C1[C@@H]2[C@H](C(=O)N1c1nc3ccc(Oc4ccccc4)cc3s1)[C@@H]1C=C[C@H]2C1 [Example 19, (1R,2S,6R,7S)-4-(6-phenoxy-1,3-benzothiazol-2-yl)-4-azatricyclo[5.2.1.02,6]dec-8-ene-3,5-dione]	1000 to 5000 nM
O=C(Nc1nc2ccc(Cc3ccccc3)cc2s1)[C@@H]1C2C=CC(C2)[C@@H]1C(=O)O (stereo partly drawn) [Example 20, 3-[(6-benzyl-1,3-benzothiazol-2-yl)carbamoyl]bicyclo[2.2.1]hept-5-ene-2-carboxylic acid]	< 1000 nM
O=C(Nc1nc2ccc(Oc3ccc(F)cc3)cc2s1)[C@@H]1C2C=CC(C2)[C@@H]1C(=O)O (stereo partly drawn) [Example 21, 3-[[6-(4-fluorophenoxy)-1,3-benzothiazol-2-yl]carbamoyl]bicyclo[2.2.1]hept-5-ene-2-carboxylic acid]	< 1000 nM

Compound	EC50
O=C(Nc1nc2ccc(Oc3ccc(C(F)(F)F)cc3)cc2s1)[C@@H]1C2C=CC(C2)[C@@H]1C(=O)O (stereo partly drawn) [Example 22, 3-[[6-[4-(trifluoromethyl)phenoxy]-1,3-benzothiazol-2-yl]carbamoyl]bicyclo[2.2.1]hept-5-ene-2-carboxylic acid]	1000 to 5000 nM
O=C1[C@@H]2[C@H](C(=O)N1c1nc3ccc(Oc4ccc(C(F)(F)F)cc4)cc3s1)[C@@H]1C=C[C@H]2C1 [Example 23, (1R,2S,6R,7S)-4-[6-[4-(trifluoromethyl)phenoxy]-1,3-benzothiazol-2-yl]-4-azatricyclo[5.2.1.02,6]dec-8-ene-3,5-dione]	1000 to 5000 nM
O=C(Nc1nc2ccc(Oc3ccncc3)cc2s1)[C@@H]1C2C=CC(C2)[C@@H]1C(=O)O (stereo partly drawn) [Example 24, 3-[[6-(4-pyridyloxy)-1,3-benzothiazol-2-yl]carbamoyl]bicyclo[2.2.1]hept-5-ene-2-carboxylic acid]	5000 to 10000 nM
O=C(Nc1nc2ccc(Oc3ncccc3C(F)(F)F)cc2s1)[C@@H]1C2C=CC(C2)[C@@H]1C(=O)O (stereo partly drawn) [Example 25, 3-[[6-[[3-(trifluoromethyl)-2-pyridyl]oxy]-1,3-benzothiazol-2-yl]carbamoyl]bicyclo[2.2.1]hept-5-ene-2-carboxylic acid]	1000 to 5000 nM
O=C1[C@@H]2[C@H](C(=O)N1c1nc3ccc(Oc4ncccc4C(F)(F)F)cc3s1)[C@@H]1C=C[C@H]2C1 [Example 26, (1R,2S,6R,7S)-4-[6-[[3-(trifluoromethyl)-2-pyridyl]oxy]-1,3-benzothiazol-2-yl]-4-azatricyclo[5.2.1.02,6]dec-8-ene-3,5-dione]	1000 to 5000 nM
O=C(Nc1nc2ccc(Oc3cc(C(F)(F)F)ccn3)cc2s1)[C@@H]1C2C=CC(C2)[C@@H]1C(=O)O (stereo partly drawn) [Example 27, 3-[[6-[[4-(trifluoromethyl)-2-pyridyl]oxy]-1,3-benzothiazol-2-yl]carbamoyl]bicyclo[2.2.1]hept-5-ene-2-carboxylic acid]	< 1000 nM
O=C1[C@@H]2[C@H](C(=O)N1c1nc3ccc(Oc4cc(C(F)(F)F)ccn4)cc3s1)[C@@H]1C=C[C@H]2C1 [Example 28, (1R,2S,6R,7S)-4-[6-[[4-(trifluoromethyl)-2-pyridyl]oxy]-1,3-benzothiazol-2-yl]-4-azatricyclo[5.2.1.02,6]dec-8-ene-3,5-dione]	< 1000 nM
Cc1ccnc(Oc2ccc3nc(NC(=O)[C@@H]4C5C=CC(C5)[C@@H]4C(=O)O)sc3c2)c1 (stereo partly drawn) [Example 29, 3-[[6-[(4-methyl-2-pyridyl)oxy]-1,3-benzothiazol-2-yl]carbamoyl]bicyclo[2.2.1]hept-5-ene-2-carboxylic acid]	< 1000 nM
Cc1ccnc(Oc2ccc3nc(N4C(=O)[C@@H]5C6C=CC(C6)[C@@H]5C4=O)sc3c2)c1 [Example 30]	< 1000 nM
N#Cc1ccnc(Oc2ccc3nc(N4C(=O)[C@@H]5[C@H](C4=O)[C@@H]4C=C[C@H]5C4)sc3c2)c1 [Example 31, 2-[[2-[(1R,2S,6R,7S)-3,5-dioxo-4-azatricyclo[5.2.1.02,6]dec-8-en-4-yl]-1,3-benzothiazol-6-yl]oxy]pyridine-4-carbonitrile]	5000 to 10000 nM
O=C(Nc1nc2ccc(Oc3ccnc(C(F)(F)F)c3)cc2s1)[C@@H]1C2C=CC(C2)[C@@H]1C(=O)O (stereo partly drawn) [Example 32, 3-[[6-[[2-(trifluoromethyl)-4-pyridyl]oxy]-1,3-benzothiazol-2-yl]carbamoyl]bicyclo[2.2.1]hept-5-ene-2-carboxylic acid]	< 1000 nM
O=C1[C@@H]2[C@H](C(=O)N1c1nc3ccc(Oc4cccc(C(F)(F)F)n4)cc3s1)[C@@H]1C=C[C@H]2C1 [Example 34, (1R,2S,6R,7S)-4-[6-[[6-(trifluoromethyl)-2-pyridyl]oxy]-1,3-benzothiazol-2-yl]-4-azatricyclo[5.2.1.02,6]dec-8-ene-3,5-dione]	1000 to 5000 nM
O=C(Nc1nc2ccc(Oc3ccc(C(F)(F)F)cn3)cc2s1)[C@@H]1C2C=CC(C2)[C@@H]1C(=O)O (stereo partly drawn) [Example 35, 3-[[6-[[5-(trifluoromethyl)-2-pyridyl]oxy]-1,3-benzothiazol-2-yl]carbamoyl]bicyclo[2.2.1]hept-5-ene-2-carboxylic acid]	1000 to 5000 nM
O=C1[C@@H]2[C@H](C(=O)N1c1nc3ccc(Oc4ccc(C(F)(F)F)cn4)cc3s1)[C@@H]1C=C[C@H]2C1 [Example 36, (1R,2S,6R,7S)-4-[6-[[5-(trifluoromethyl)-2-pyridyl]oxy]-1,3-benzothiazol-2-yl]-4-azatricyclo[5.2.1.02,6]dec-8-ene-3,5-dione]	< 1000 nM
O=C(Nc1nc2ccc(Oc3ccc(Br)cn3)cc2s1)[C@@H]1C2C=CC(C2)[C@@H]1C(=O)O (stereo partly drawn) [Example 37, 3-[[6-[(5-bromo-2-pyridyl)oxy]-1,3-benzothiazol-2-yl]carbamoyl]bicyclo [2.2.1]hept-5-ene-2-carboxylic acid]	1000 to 5000 nM
O=C(O)C1C2C=CC(C2)C1C(=O)Nc1nc2ccc([N+](=O)[O-])cc2s1 (stereo not drawn) [Example 38, 3-[(6-nitro-1,3-benzothiazol-2-yl)carbamoyl]bicyclo[2.2.1]hept-5-ene-2-carboxylic acid]	5000 to 10000 nM
N#Cc1ccc2nc(NC(=O)[C@@H]3C4C=CC(C4)[C@@H]3C(=O)O)sc2c1 (stereo partly drawn) [Example 40, 3-[(6-cyano-1,3-benzothiazol-2-yl)carbamoyl]bicyclo[2.2.1]hept-5-ene-2-carboxylic acid]	5000 to 10000 nM
